Residues, ends and D or L forms follow the SMILES beside them. *: point of attachment. Octanoyl = CCCCCCCC(=O)*
What was measured:
cathepsin L = biological target: T1, cathepsin L (Homo sapiens, UniProt P07711); experiment: in vitro protease inhibition assay, cathepsin L; assay type: biochemical; conditions: z-FR-AMC substrate, MES buffer pH 5.5
T1 construct: purchased R&D Systems
Protocol: (§1) Protease Inhibition Assays. Detailed information about synthesis of N-Boc-protected peptidyl aldehydes and their deprotection for protease inhibition activity tests are available in the Extended Experimental Procedures. For protease inhibition assays, all fluorescence measurements were made on a Biotek H4 instrument. Buffering reagents were purchased from Sigma-Aldrich and sterile-filtered prior to use. Compounds and substrates were diluted from DMSO stocks into water/DMSO such that final DMSO plate concentrations were below 5% during the reaction. All reactions were started by the addition of substrate to the enzyme/compound solutions (see also Extended Experimental Procedures).
Deprotection of Boc-protected dipeptide aldehyde compounds. All the deprotection experiments were performed in an anaerobic chamber. Trifluoroacetic acid (TFA) was added to the purified Boc-protected dipeptidyl aldehydes. 1 μL of the reaction was added to 100 μL 80% DMSO in ddH2O and a 0.5 μL portion of the solution was examined by an Agilent 6530 qTOF LC/MS. For preparing dipeptide aldehyde solution for protease inhibition assays, the deprotection reaction was left at 30° C. for 15 mins. Then ddH2O was added to quench the reaction and give a 2.5 mM peptidyl aldehydes in 1% TFA solution. Some side products like isobutylene and their corresponding imine and pyrazinone products have poor water solubility. […]

cathepsin S = biological target: T2, cathepsin S (Homo sapiens, UniProt P25774); experiment: in vitro protease inhibition assay, cathepsin S; assay type: biochemical; conditions: z-FR-AMC substrate, MES buffer pH 5.5, read-out: activity against cathepsin S
T2 construct: purchased R&D Systems
Protocol: as §1
Detailed procedures for protease inhibition assays. Enzymes: cathepsin L, cathepsin B, cathepsin C and cathepsin S were purchased from R&D Systems trypsin, chymotrypsin and calpain I were purchased from Sigma-Aldrich. Calpain I was also purchased from Abcam. Human 20s proteasome was purchased from Boston Biochem.
Substrates: z-FR-AMC, Boc-IEGR-AMC, Suc-ALPF-AMC and GR-AMC were purchased from Bachem. Suc-LLVY-AMC was purchased from Anaspec. Substrates were used without further purification.
Inhibitors: Carfilzomib was a generous gift from Onyx Pharmaceuticals and was used as a positive control in the proteasome inhibition assay. […]

cathepsin H (CTSH) = biological target: T3, cathepsin H (CTSH) (Homo sapiens, UniProt P09668); experiment: competitive isoTOP-ABPP, blockade of IA-alkyne labeling, cathepsin H; assay type: binding; conditions: THP-1 membranes, 250 nM Phe-Phe-H
T3 construct: We treated membrane preparations of the human innate immune (monocytic) cell line THP-1 with the bgc35 product Phe-Phe-H; endogenous in cells; host or cells: THP-1 membrane fraction
T3 sequence (P09668 98-335): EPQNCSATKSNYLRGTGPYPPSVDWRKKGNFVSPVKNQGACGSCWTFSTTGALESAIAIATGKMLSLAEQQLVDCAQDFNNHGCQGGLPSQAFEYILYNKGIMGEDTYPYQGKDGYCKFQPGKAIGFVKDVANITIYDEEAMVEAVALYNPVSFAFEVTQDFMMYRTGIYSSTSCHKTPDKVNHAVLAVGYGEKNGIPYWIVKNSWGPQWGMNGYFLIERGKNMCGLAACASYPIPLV
From the text: (§2) The proteases we assayed were chosen based on literature precedent. To determine the target of the peptide aldehydes in an unbiased way, we applied a quantitative chemical proteomic method, termed isoTOP-ABPP (Weerapana et al. 2010, Backus et al., 2016) to measure the global interactions of a representative dipeptide aldehyde, bgc35 product Phe-Phe-H, with cysteine residues in the human cell lysates. We treated membrane preparations of the human innate immune (monocytic) cell line THP-1 with the bgc35 product Phe-Phe-H or vehicle, and then these samples were treated with a cysteine reactive iodoacetamide-alkyne (IA-alkyne) probe and conjugated to an isotopically differentiated (heavy or light, respectively) TEV protease-cleavable biotin tag using copper-catalyzed azide-alkyne cycloaddition (CuAAC or click) chemistry. Vehicle- and peptide-treated samples were then combined, enriched, subjected to sequential trypsin and TEV digests and evaluated by LC-MS/MS. Site-specific blockade of IA-alkyne labeling as measured by quantitation of heavy/light MS1 chromatographic peaks designates cysteine residues that are targeted by Phe-Phe-H (heavy/light ratios, or R values>5; line, FIG. 3D). […]

cathepsin S (CTSS) = biological target: T4, cathepsin S (CTSS) (Homo sapiens, UniProt P25774); experiment: competitive isoTOP-ABPP, blockade of IA-alkyne labeling, cathepsin S; assay type: binding
T4 construct: We treated membrane preparations of the human innate immune (monocytic) cell line THP-1 with the bgc35 product Phe-Phe-H; endogenous in cells; host or cells: THP-1 membrane fraction
From the text: as §2

cathepsin L (CTSL1) = biological target: T5, cathepsin L (CTSL1) (Homo sapiens, UniProt P07711); experiment: competitive isoTOP-ABPP, blockade of IA-alkyne labeling, cathepsin L; assay type: binding; conditions: THP-1 membranes, 250 nM Phe-Phe-H
T5 construct: We treated membrane preparations of the human innate immune (monocytic) cell line THP-1 with the bgc35 product Phe-Phe-H; endogenous in cells; host or cells: THP-1 membrane fraction
From the text: as §2

cathepsin B (CTSB) = biological target: T6, cathepsin B (CTSB) (Homo sapiens, UniProt P07858); experiment: competitive isoTOP-ABPP, blockade of IA-alkyne labeling, cathepsin B; assay type: binding; conditions: THP-1 membranes, 250 nM Phe-Phe-H
T6 construct: We treated membrane preparations of the human innate immune (monocytic) cell line THP-1 with the bgc35 product Phe-Phe-H; endogenous in cells; host or cells: THP-1 membrane fraction
From the text: as §2

cathepsin Z (CTSZ) = biological target: T7, cathepsin Z (CTSZ) (Homo sapiens, UniProt Q9UBR2); experiment: competitive isoTOP-ABPP, blockade of IA-alkyne labeling, cathepsin Z; assay type: binding
T7 construct: We treated membrane preparations of the human innate immune (monocytic) cell line THP-1 with the bgc35 product Phe-Phe-H; endogenous in cells; host or cells: THP-1 membrane fraction
From the text: as §2

[1] = test system: more than 3500 total quantified cysteines across three different human cell proteomes; experiment: competitive isoTOP-ABPP, proteome-wide selectivity over non-cathepsin cysteines; assay type: binding; conditions: more than 3500 quantified cysteines, no additional targets
From the text: as §2

cathepsin C (CTSC) = biological target: T8, cathepsin C (CTSC) (Homo sapiens, UniProt P53634); experiment: competitive isoTOP-ABPP, blockade of IA-alkyne labeling, cathepsin C; assay type: binding
T8 construct: endogenously expressed CTSC is post-translationally regulated; endogenous in cells; host or cells: THP-1 membrane fraction
From the text: as §2

[2] = THP-1 and other human cell proteomes (Ramos, H1975), 25 μM Phe-Phe-H
[3] = THP-1 membranes, 250 nM Phe-Phe-H

T7 sequence (Q9UBR2 62-303): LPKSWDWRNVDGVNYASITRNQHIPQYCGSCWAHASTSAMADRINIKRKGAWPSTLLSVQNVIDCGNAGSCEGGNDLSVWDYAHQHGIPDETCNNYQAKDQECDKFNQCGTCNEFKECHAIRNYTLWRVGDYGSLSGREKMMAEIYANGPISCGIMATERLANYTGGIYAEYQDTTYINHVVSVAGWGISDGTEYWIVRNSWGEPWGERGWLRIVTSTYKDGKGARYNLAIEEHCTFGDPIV
T4 sequence (P25774 115-331): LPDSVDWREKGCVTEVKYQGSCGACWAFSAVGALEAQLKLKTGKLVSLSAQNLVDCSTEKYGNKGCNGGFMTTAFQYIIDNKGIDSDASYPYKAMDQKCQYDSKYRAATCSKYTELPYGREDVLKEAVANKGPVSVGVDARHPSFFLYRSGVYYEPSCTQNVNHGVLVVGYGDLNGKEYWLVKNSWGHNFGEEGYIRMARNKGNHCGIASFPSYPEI
T8 sequence (P53634 25-463): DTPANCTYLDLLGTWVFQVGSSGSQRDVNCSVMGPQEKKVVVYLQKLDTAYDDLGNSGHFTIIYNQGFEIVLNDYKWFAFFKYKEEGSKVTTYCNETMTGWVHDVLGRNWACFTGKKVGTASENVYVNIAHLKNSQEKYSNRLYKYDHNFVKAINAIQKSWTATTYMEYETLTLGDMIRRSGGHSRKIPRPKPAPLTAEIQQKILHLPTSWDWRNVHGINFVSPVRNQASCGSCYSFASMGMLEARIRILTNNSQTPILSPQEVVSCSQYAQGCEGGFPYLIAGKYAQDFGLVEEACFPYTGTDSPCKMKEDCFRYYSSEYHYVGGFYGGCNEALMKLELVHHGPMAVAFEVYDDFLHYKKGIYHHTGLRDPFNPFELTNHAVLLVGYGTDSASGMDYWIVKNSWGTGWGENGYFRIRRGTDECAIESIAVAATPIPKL
T2 sequence (P25774 115-331): as the sequence (P25774 115-331) above
T1 sequence (P07711 114-333): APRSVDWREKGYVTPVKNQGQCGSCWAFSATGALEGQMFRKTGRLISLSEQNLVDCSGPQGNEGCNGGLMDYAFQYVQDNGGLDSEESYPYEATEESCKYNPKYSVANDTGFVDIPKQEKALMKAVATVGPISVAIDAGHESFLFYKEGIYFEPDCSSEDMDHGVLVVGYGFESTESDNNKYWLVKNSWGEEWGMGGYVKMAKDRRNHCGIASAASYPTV
T5 sequence (P07711 114-333): as above

Row | Compound | inhibitory activity (IC50) against cathepsin L (cathepsin L) | IC50 (cathepsin S) | heavy/light MS1 ratio (R value), CTSH (cathepsin H (CTSH)) | heavy/light MS1 ratio (R value), CTSS (cathepsin S (CTSS); [2]) | heavy/light MS1 ratio (R value), CTSS (cathepsin S (CTSS); [3]) | heavy/light MS1 ratio (R value), CTSL1 catalytic cysteine Cys138 (cathepsin L (CTSL1)) | heavy/light MS1 ratio (R value), CTSB (cathepsin B (CTSB)) | heavy/light MS1 ratio (R value), CTSZ (cathepsin Z (CTSZ); [2]) | heavy/light MS1 ratio (R value), CTSZ (cathepsin Z (CTSZ); [3]) | heavy/light MS1 ratio (R value), additional (non-cathepsin) cysteines [1] | heavy/light MS1 ratio (R value), CTSC (cathepsin C (CTSC); [2]) | heavy/light MS1 ratio (R value), CTSC catalytic cysteine Cys258 (cathepsin C (CTSC); [3])
1 | CCCCCCCC(=O)N[C@@H](CCSC)C(=O)N[C@H](C=O)Cc1ccccc1 [Compound 16, N-octanoyl-Met-Phe-H] (Octanoyl-Met-Phe-aldehyde) | undetectable activity | 13 nM | – | – | – | – | – | – | – | – | – | –
2 | N[C@@H](Cc1ccccc1)C(=O)N[C@H](C=O)Cc1ccccc1 [Phe-Phe-H] (H-Phe-Phe-aldehyde) | – | – | < 2.0 | > 5 | < 2.0 | > 20 | < 2.0 | > 5 | < 2.0 | < 2.0 | > 5 | > 2.78

Source: patent US11124498B2, “Compositions and methods for modulating protease activity” (THE REGENTS OF THE UNIVERSITY OF CALIFORNIA, priority 2016, dated 2021)
